Experimental data as given in the NIST ThermoML archive (doi:10.1021/je0201119).
Numbers after ± are expanded uncertainties.

Tests used:
[1] = xn = mol fraction of the nth substance listed; details: 92 kPa, Liquid, x2 = 0; for mass density: Vibrating tube method
[2] = 92 kPa, Liquid; for mass density: Vibrating tube method

Compound	viscosity ([1]; 298.15 K)	viscosity ([1]; 303.15 K)	viscosity ([1]; 313.15 K)	mass density ([1]; 323.15 K)	viscosity ([1]; 323.15 K)	mass density ([1]; 333.15 K)	viscosity ([1]; 333.15 K)	mass density ([1]; 343.15 K)	viscosity ([1]; 343.15 K)	viscosity ([2]; 298.15 K)	viscosity ([2]; 303.15 K)	viscosity ([2]; 313.15 K)	viscosity ([2]; 323.15 K)	mass density ([2]; 323.15 K)	viscosity ([2]; 333.15 K)	mass density ([2]; 333.15 K)	viscosity ([2]; 343.15 K)	mass density ([2]; 343.15 K)	mass density ([2]; 313.15 K)
O [water] + CC(C)(N)CO	0.89 ± 0.089 mPa·s	0.805 ± 0.082 mPa·s	0.653 ± 0.069 mPa·s	988.04 ± 0.06 kg/m3	0.547 ± 0.06 mPa·s	983.12 ± 0.06 kg/m3	0.466 ± 0.053 mPa·s	977.77 ± 0.06 kg/m3	0.405 ± 0.047 mPa·s										
O [water]										0.89 ± 0.089 mPa·s	0.805 ± 0.082 mPa·s	0.653 ± 0.069 mPa·s	0.547 ± 0.06 mPa·s	988.04 ± 0.06 kg/m3	0.466 ± 0.053 mPa·s	983.12 ± 0.06 kg/m3	0.405 ± 0.047 mPa·s	977.77 ± 0.06 kg/m3	
CC(C)(N)CO [2-amino-2-methylpropan-1-ol]												47.8 ± 3.2 mPa·s	25.1 ± 1.7 mPa·s	911.24 ± 1.4 kg/m3	14.4 ± 1 mPa·s	902.87 ± 1.4 kg/m3	8.91 ± 0.69 mPa·s	894.28 ± 1.4 kg/m3	919.65 ± 1.4 kg/m3
